Results on three compounds are retold here after ChEMBL document CHEMBL1143699, “Chemical and biological effects of substitution of the 2-position of ring-expanded ('fat') nucleosides containing the imidazo[4,5-e][1,3]diazepine-4,8-dione ring system: the role of electronic and steric factors on glycosidic bond stability and anti-HCV activity” (Bioorg Med Chem, 2007).

The subject of one data set is Hepatitis C virus. As to the kind of experiment: Antiviral activity against Hepatitis C virus infected Huh7 cells assessed as RNA replicon. It counts as functional, Hepacivirus hominis, Huh-7.
A short description of data set [1]: Cytotoxicity against Huh7 cells relative to control. Conditions: human, huh-7. It counts as cell-based.

Consider `COc1ccc(-c2nc3c(=O)nc(N)[nH]c(=O)c3n2[C@@H]2O[C@H](CO)[C@@H](O)[C@H]2O)cc1`, for which, in the data set on Hepatitis C virus, the Inhibition was 9.5%. Further, the Activity in data set [1] was determined as 109.8%.

For the compound `Nc1nc(=O)c2nc(-c3ccc(F)cc3)n([C@@H]3O[C@H](CO)[C@@H](O)[C@H]3O)c2c(=O)[nH]1`, in the data set on Hepatitis C virus, the Inhibition is reported as 0%. The compound also had an Activity in data set [1] of 108.6%.

As to `COc1cccc(-c2nc3c(=O)nc(N)[nH]c(=O)c3n2[C@@H]2O[C@H](CO)[C@@H](O)[C@H]2O)c1`, the Inhibition in the data set with Hepatitis C virus was 31.8%. Also, in data set [1], the Activity was determined as 97.2%.
